From PubChem BioAssay (NCI) come the findings set out here.

Test systems include M14 melanoma; SN12C renal; KM12 colon; SK-MEL-2 melanoma; OVCAR-3 ovarian; HL-60(TB) leukemia; NCI/ADR-RES ovarian; MCF7 breast; HOP-92 NSCLC; SR leukemia.
Common to all, as to experiment: NCI-60 cell line screen, 48 h

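96-well plates; 48 h exposure; 5 concentrations. Endpoints by linear interpolation between flanking doses. Not reached: highest tested concentration assigned. GI50: concentration for 50% inhibition of growth. TGI marks complete inhibition of growth.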

Turning to `COc1cccc(Cc2c3cc(OC)ccc3cc[n+]2C)c1`, the TGI in the assay on M14 melanoma, in the assay on SN12C renal, in the assay with KM12 colon, with SK-MEL-2 melanoma and in the assay with OVCAR-3 ovarian was above 100 µM throughout.

On to `O=[Se](=O)c1ccccc1.O=[Se](=O)c1ccccc1.[Cu]`, for which the GI50 is 15.8 µM with SN12C renal; 9.38 µM in the assay on KM12 colon; 6.51 µM in the assay with HL-60(TB) leukemia; 18.8 µM in the assay with SK-MEL-2 melanoma; 10.5 µM in the assay with NCI/ADR-RES ovarian; 13.7 µM in the assay on OVCAR-3 ovarian. Besides, the GI50 is 24.1 µM with MCF7 breast and 21.4 µM with HOP-92 NSCLC. In addition, the TGI is 29.5 µM with SN12C renal; 24.6 µM with KM12 colon; 15.4 µM with HL-60(TB) leukemia; 33.5 µM in the assay with SK-MEL-2 melanoma; 30 µM in the assay on NCI/ADR-RES ovarian; 32.7 µM with OVCAR-3 ovarian. For the same compound, the TGI in the assay on MCF7 breast was found to be 62 µM; with HOP-92 NSCLC, 37.3 µM.

With `CC(CO)C1C[C@H](O)[C@@]2(C)CC(=O)C=C(CO)[C@@H]2C1` (some centres undefined), the TGI in the assay on M14 melanoma, with SN12C renal, in the assay with KM12 colon, in the assay on HL-60(TB) leukemia, in the assay on SK-MEL-2 melanoma and with NCI/ADR-RES ovarian was above 100 µM in each case. The TGI in the assay with OVCAR-3 ovarian, in the assay with MCF7 breast and in the assay on HOP-92 NSCLC was above 100 µM each time.

Turning to `CCCCc1ccc(Nc2ncc3[nH]cnc3n2)cc1`, the TGI is 38.9 µM with M14 melanoma; 48.9 µM in the assay with SN12C renal; 45 µM in the assay on KM12 colon; above 100 µM with HL-60(TB) leukemia; 53.3 µM in the assay on SK-MEL-2 melanoma; 46 µM in the assay on NCI/ADR-RES ovarian. Besides, the TGI in the assay with OVCAR-3 ovarian was 28.9 µM; with MCF7 breast it was above 100 µM; with HOP-92 NSCLC it was 49.7 µM.

On to `CC(=O)O[C@]12CCCC1C1(O)C(O)CCCC12` (some centres undefined), for which the TGI in the assay with M14 melanoma, in the assay with SN12C renal, with KM12 colon, in the assay on HL-60(TB) leukemia, in the assay on SK-MEL-2 melanoma and in the assay with SR leukemia was above 100 µM throughout.

As for `C=C(CC[C@@H](C(=O)O)[C@H]1[C@H](O)C[C@@]2(C)C3=CC[C@@H](C(=C)C)[C@](C)(CCC(=O)O)C3=CC[C@]12C)C(C)C`, the TGI in the assay with M14 melanoma came out at 32.7 µM; with SN12C renal, 31.9 µM; in the assay on KM12 colon, 32.6 µM; with HL-60(TB) leukemia it was 36 µM; with SK-MEL-2 melanoma, 34.3 µM; in the assay on NCI/ADR-RES ovarian, 42.3 µM. The TGI in the assay with OVCAR-3 ovarian was determined as 33.2 µM; in the assay on MCF7 breast it was 32.6 µM; in the assay on HOP-92 NSCLC, 33.7 µM.

For `Nc1ccccc1N/C=C\C(=O)C(Cl)(Cl)Cl`, the TGI with M14 melanoma was 31.8 µM; in the assay on SN12C renal, 40.2 µM; with KM12 colon, 29.4 µM; with HL-60(TB) leukemia, 85.3 µM; with SK-MEL-2 melanoma, 53.7 µM; in the assay with NCI/ADR-RES ovarian, above 100 µM. Moreover, the TGI in the assay with MCF7 breast came out at 30.7 µM; in the assay on HOP-92 NSCLC, 47.8 µM.

As for `O=C(N/N=C/c1cc(Cl)cc(Cl)c1[O-])c1ccccc1O.O=C(N/N=C/c1cc(Cl)cc(Cl)c1[O-])c1ccccc1O.[Ni+2]`, the TGI in the assay with M14 melanoma was found to be 1.84 µM; in the assay with KM12 colon, 5.66 µM; with HL-60(TB) leukemia, 0.472 µM; in the assay with SK-MEL-2 melanoma, 1.35 µM; in the assay on OVCAR-3 ovarian it was 0.835 µM; with SR leukemia, 1.46 µM. The compound further had a TGI with HOP-92 NSCLC of 1.79 µM. For the same compound, the GI50 was 0.494 µM in the assay with KM12 colon, 0.329 µM with SK-MEL-2 melanoma and 0.495 µM with HOP-92 NSCLC.

On to `N#C[S-].[Nd+3].c1ccc(-c2ccccn2)nc1.c1ccc(-c2ccccn2)nc1.c1ccc(-c2ccccn2)nc1`, for which the GI50 is 2.26 µM in the assay with M14 melanoma; 5.82 µM in the assay with SN12C renal; 5.62 µM with KM12 colon; 8.47 µM with SK-MEL-2 melanoma; 37.6 µM in the assay with OVCAR-3 ovarian; 6.9 µM in the assay with SR leukemia. In addition, the TGI is 5.96 µM in the assay with M14 melanoma; above 100 µM with SN12C renal; above 100 µM in the assay on KM12 colon; 51.5 µM in the assay with SK-MEL-2 melanoma; above 100 µM in the assay on OVCAR-3 ovarian; above 100 µM with SR leukemia.

As to `CSC1=C(C#N)C(=O)N(c2ccc(C)cc2)C(=S)C1C#N` (centres undefined), the TGI in the assay with M14 melanoma, in the assay on SN12C renal, with KM12 colon, in the assay on HL-60(TB) leukemia, with SK-MEL-2 melanoma and in the assay with NCI/ADR-RES ovarian was above 100 µM throughout. Besides, the TGI with MCF7 breast and in the assay on HOP-92 NSCLC was above 100 µM each time.

`O=C1c2c(n(Cc3ccccc3)c(=O)n2Cc2ccccc2)C(=O)N1Cc1ccccc1`: the TGI in the assay on M14 melanoma, in the assay with SN12C renal, in the assay on KM12 colon, in the assay with HL-60(TB) leukemia, in the assay on SK-MEL-2 melanoma and in the assay with OVCAR-3 ovarian was above 100 µM in each case. In the assay on HOP-92 NSCLC, the TGI was above 100 µM.

`CCOC(=O)C(=Cc1ccc(C(=O)OC)cc1)C(=O)OCC`: the TGI in the assay on M14 melanoma was determined as 3.36 µM; in the assay on SN12C renal, 5 µM; with KM12 colon it was 8.15 µM; in the assay with HL-60(TB) leukemia, 4.36 µM; in the assay with SK-MEL-2 melanoma, 3.37 µM; in the assay with OVCAR-3 ovarian, 9.57 µM. Also, in the assay on HOP-92 NSCLC, the TGI came to 4.02 µM.

Consider `O=C(c1ccccc1)c1ccc2nc(-c3c(Cl)c(Cl)c(Cl)c(Cl)c3C(=O)N/N=C/c3ccccc3)[nH]c2c1`, for which the TGI is above 100 µM in the assay with M14 melanoma; 60.8 µM in the assay on SN12C renal; above 100 µM with KM12 colon; 73 µM in the assay on HL-60(TB) leukemia; 67.5 µM with SK-MEL-2 melanoma; 80 µM with NCI/ADR-RES ovarian. The TGI in the assay with OVCAR-3 ovarian was 54.3 µM; in the assay with MCF7 breast it was 41.9 µM; in the assay with HOP-92 NSCLC, above 100 µM.

On to `COC(=O)/C=C1\CCC(C)(C(=O)NS(=O)(=O)c2ccc(C)cc2)C1(C)C` (centres undefined), for which the TGI in the assay on M14 melanoma, in the assay with SN12C renal, in the assay with KM12 colon, with HL-60(TB) leukemia, in the assay on SK-MEL-2 melanoma and with NCI/ADR-RES ovarian was above 100 µM throughout. In addition, the TGI in the assay with OVCAR-3 ovarian, in the assay with MCF7 breast and in the assay on HOP-92 NSCLC was above 100 µM throughout.
